Patent US12221646B2, “Method for the rapid determination of susceptibility or resistance of bacteria to antibiotics” (ABM TECHNOLOGIES, LLC, priority 2013, dated 2025)
Where two headings read alike, the source gives them in different places.

What was measured:
Assay type in all cases: cell-based
[1] = test system: Klebsiella pneumoniae; experiment: Cell enlargement after incubation with antibiotic, K. pneumoniae; conditions: correlated to CLSI MIC≤4 μg/ml
Method: Klebsiella pneumoniae, another significant pathogen in clinical settings, was also evaluated. […] Strains were considered to be resistant when no cell enlargement was presented at either concentration.

[2] = test system: Acinetobacter baumannii; experiment: MIC of ceftazidime by E-test in A. baumannii strains; conditions: read-out: MIC determined by E-test
[3] = test system: Pseudomonas aeruginosa; experiment: Cell enlargement after one hour incubation with antibiotic, P. aeruginosa
Method: Pseudomonas aeruginosa, a common source of dangerous nosocomial infections, was also evaluated. […] Those correlated breakpoint concentrations for enlargement were 0.5 μg/ml for susceptible strains and greater than 1.0 μg/ml for resistant strains.
P. aeruginosa was evaluated for the effect of carbapenems, meropenem and imipenem, which we corroborate that induce cell enlargement in the susceptible strains of this bacterium. CLSI breakpoint concentrations of susceptibility and resistance correspond to MICs≤2-≥8 μg/ml, respectively. For cell enlargement, the new breakpoint concentrations were much lower: ≤0.2->0.5 μg/ml, for susceptibility and resistance, respectively. One hundred and thirty strains of P. aeruginosa were studied, obtaining 97 susceptible, 14 intermediate and 19 resistant to meropenem, following the standard criterion of growth affectation as indicated by MIC-CL SI. All these strains were correctly categorized when using the new breakpoints for enlargement/non-enlargement.

[4] = test system: Acinetobacter baumannii; experiment: Cell enlargement after one hour incubation with antibiotic (microgel, SYBR Gold, fluorescence microscopy), A. baumannii
Method: Each dose was correlated to susceptibility breakpoints established in Example 1. The incubated samples were then assessed under microscopy for enlargement. The criterion of enlargement/non-enlargement was determined by a comparison to a control dose of 0 μg/ml. […] Using the criterion of enlargement/non-enlargement and the correlated breakpoint concentrations, each of the 320 strains were correctly identified.

Structure (SMILES)	breakpoint concentration for cell enlargement, susceptible strains [1] [µg/mL]	MIC ([2]; highly resistant strain of A. baumannii (FIG. 2, fourth row)) [µg/mL]	MIC ([2]; intermediate strain of A. baumannii (FIG. 2, second row)) [µg/mL]	MIC ([2]; susceptible strain of A. baumannii (FIG. 2, first row)) [µg/mL]	cell enlargement, resistant strains ([3]; 1 h incubation with 0.5 μg/ml and 1 μg/ml, 5 strains)	cell enlargement, intermediate strains ([3]; 1 h incubation with 0.5 μg/ml and 1 μg/ml, 8 strains)	cell enlargement, susceptible strains ([3]; 1 h incubation with 0.5 μg/ml and 1 μg/ml, 117 strains)	breakpoint concentration for cell enlargement, susceptible strains ([3]; ceftazidime, correlated to CLSI MIC≤8 μg/ml) [µg/mL]	breakpoint concentration for cell enlargement, resistant strains ([3]; ceftazidime, correlated to CLSI MIC≥32 μg/ml)	breakpoint concentration for cell enlargement, intermediate ([4]; empirically correlated to CLSI MIC breakpoint 16 μg/ml) [µg/mL]	breakpoint concentration for cell enlargement, susceptible ([4]; empirically correlated to CLSI MIC breakpoint ≤8 μg/ml) [µg/mL]	breakpoint concentration for cell enlargement, resistant ([4]; empirically correlated to CLSI MIC breakpoint ≥32 μg/ml) [µg/mL]	cell enlargement ([4]; highly resistant strain, 1 h incubation, tested 2, 4, 8 μg/ml)	concentration from which cell enlargement is demonstrated ([4]; intermediate strain, 1 h incubation, tested 2, 4, 8 μg/ml) [µg/mL]	concentration from which cell enlargement is demonstrated ([4]; resistant strain, 1 h incubation, tested 2, 4, 8 μg/ml) [µg/mL]	concentration from which cell enlargement is demonstrated ([4]; susceptible strain, 1 h incubation, tested 2, 4, 8 μg/ml) [µg/mL]	cell enlargement, intermediate strains ([3]; incubation with 0.2 μg/ml and 0.5 μg/ml, 14 strains)	cell enlargement, resistant strains ([3]; incubation with 0.2 μg/ml and 0.5 μg/ml, 19 strains)	cell enlargement, susceptible strains ([3]; incubation with 0.2 μg/ml and 0.5 μg/ml, 97 strains)
CC(C)(O/N=C(\C(=O)N[C@@H]1C(=O)N2C(C(=O)[O-])=C(C[n+]3ccccc3)CS[C@H]12)c1csc(N)n1)C(=O)O [ceftazidime]	0.5	> 256	12	2.5	never appeared enlarged	only after 1 μg/ml	appeared enlarged	0.5	greater than 1.0 μg/ml	4	≤ 2	≥ 8	did not demonstrate enlargement at any tested concentration	8	8	2	–	–	–
C[C@@H](O)[C@H]1C(=O)N2C(C(=O)O)=C(S[C@@H]3CN[C@H](C(=O)N(C)C)C3)[C@H](C)[C@H]12 [meropenem]	–	–	–	–	–	–	–	–	–	–	–	–	–	–	–	–	only after 0.5 μg/ml	never appeared enlarged	appeared enlarged
